According to patent US9468593B2, “Oral composition” (KABUSHIKI KAISHA SANGI, priority 2012, dated 2016):

Assay: Test for liquid permeation through dentinal tubules (Pashley's protocol, split chamber device)
Design: species or system human
Conditions: component blended singly
Description: A healthy human evulsion tooth was used to cut the tooth into sections in such a manner that dentin and dentinal tubules were exposed. The resulting sections were polished at a thickness of about 500 μm and were subjected to ultrasonic cleaning. […] The resulting solution was used as a test solution. Then, the sections whose portions other than the test surface had been masked were soaked in the test solution at 37° C. for 9 min per day. This soaking treatment was conducted for 5 days.
In addition, a test for liquid permeation through dentinal tubules was conducted. […] A dentin section was interposed between an inlet chamber and an outlet chamber of the above device. Then, the test solution was placed in the inlet chamber to treat the dentin surface. In addition, a Ringer's solution was injected using pressure in the inlet chamber before and after the treatment. By measuring the amount of flow through the outlet chamber, the liquid permeation through dentinal tubules was evaluated.
The effect of inhibiting liquid permeation through dentinal tubules of each test solution was determined as follows: first, a difference between the amount of flow of the Ringer's solution before and that after the treatment was determined; and a liquid permeation inhibition rate of the dentinal tubules was then calculated in percent units by using the following equation. […]

O.O.O=P([O-])([O-])O.[Ca+2] [calcium monohydrogen phosphate dihydrate]
ability to occlude dentinal tubules of a tooth: had an ability to occlude dentinal tubules of a tooth
